Reference: publication PMC4838890, “Dynamic and flexible H3K9me3 bridging via HP1β dimerization establishes a plastic state of condensed chromatin” (Nature Communications, 2016)
Where two headings read alike, the source gives them in different places.

Tests used:
self-dimerization = settings: ref [9][20]; read-out: dimerization Kd in solution; cited from earlier work
Protocol: To test this hypothesis, we analysed an hHP1β chimera where the CSD was replaced with an unrelated dimerization module. We used glutathione S-transferase (GST), as it is known to form dimers of similar strength as hHP1β WT in solution (Kd<1 nM)[9][20].

H3KC9me3 peptide = assay: ITC, H3KC9me3 peptide; assay type: binding; settings: for Kd: ITC, pH 7.5, 25°C, read-out: Kd (apparent dissociation constant)
Protocol: ITC measurements were performed on a iTC200 calorimeter (Microcal, Malvern, UK) at 25°C in binding buffer (10 mM triethanolamine (pH 7.5), 20 or 150 mM NaCl, 0.1 mM EDTA). Reaction heats were recorded by sequences of 37 injections of 1.8 mM hHP1β, spaced at 120 s intervals, into 250 μl of 60 μM H3 peptides, nucleosomes or oligonucleosomal arrays under constant stirring at 1,000 r.p.m. (injection #1–10: 0.5 μl each; injection #11–32: 1 μl each; injection #33–37: 2 μl each). Heats of dilution, obtained by the titration of hHP1β into buffer, were substracted from raw data before analysis. Raw data were integrated, normalized and the apparent heat change (Δq) of the reaction was plotted against the molecular ratio using the Origin software. For the determination of apparent enthalpy changes (ΔHapp), the molar association constant (KA), and the stoichiometry (n) of the interaction, non-linear least-square fitting of the Δq values was performed by the Origin software using a binding model of one set of identical binding sites.
Supplementary Table 1: Summary of conditions used in the different experiments of this study. experiment result modification template Temp. [NaCl] [MgCl2] […]
chromatin Fig. 1e,f; Fig. S1f-h; H3K9me3 oligo- 4 150 5 coprecipitation Fig. S2b nucleosomes
Fig. S7d,f; Fig.S9c nucleosomes […]
chromatin sedimentation Fig. 4a; H3K9me3 oligo- 4 150 0
(single point) Fig. S3b nucleosomes […]
chromatin sedimentation. oligo-(titration) Fig. 3a H3K9me3 nucleosomes 4 150 0

[1] = Multimerization beyond dimer; assay type: physicochemical; settings: dynamic light scattering, SAXS, protein cross-linking, nuclear magnetic resonance
[2] = molecular target: asymmetrically modified H3K9me3-mononucleosomes; assay: SPR, immobilized asymmetric H3K9me3 mononucleosome; set-up: species or system Xenopus laevis; settings: SPR titration 0.024 to 50 µM, asymmetrically modified mononucleosome at 950 RU, one site-specific binding model; read-out: apparent Kd (Supplementary Fig. 8k)
[3] = molecular target: CSD-CSD interaction of hHP1β monomers; assay: ITC dilution, CSD-CSD dimerization; assay type: binding, human; settings: ITC dilution experiments, not shown

hHP1β WT: recombinant human heterochromatin protein 1β (GenBank NM_001127228), 185 aa
Kd (self-dimerization): < 0.001 µM
Kd (H3KC9me3 peptide; 20 mM NaCl): 11 ± 4 µM
Kd (H3KC9me3 peptide; 150 mM NaCl): 21 ± 3 µM
reduced binding to H3-tail peptide containing H3KC9me compared with methylated lysine (H3KC9me3 peptide; Table 1, ref [17]): sixfold reduced binding
multimerization beyond CSD-mediated dimerization [1]: failed to detect any multimerization of hHP1β beyond CSD-mediated dimerization
Kd [2]: 7.5 µM
CSD-CSD dimerization strength [3]: nanomolar regime
